The structures appear in SMILES notation. Active and inactive are the calls of the source. The rule behind the calls is not given here.

For data set [1], the system named is Peritoneal macrophage. Nature of the data set: Cytotoxicity against BALB/c mouse peritoneal macrophages assessed as reduction in cell viability at 20 ug incubated for 48 hrs by MTT assay. The format is toxicity, cell-based. Conditions: dose 20 µg.
For data set [2], the target named is Nucleotide-binding oligomerization domain-containing protein 2 (Homo sapiens) (UniProt Q9HC29). The data set can be described thus: Agonist activity at NOD2 in HEK-Blue hNOD2 cells assessed as increase in SEAP activity at 20 ug incubated for 24 hrs by Quanti-blue assay. The format is cell-based. Conditions: filed as agonist, dose 20.0 µg.
For data set [3], the system named is Peritoneal macrophage. The data set can be described thus: Immunostimulatory activity in BALB/c mouse peritoneal macrophages assessed as increase in TNF-aplha production at 20 ug incubated for 48 hrs by sandwich ELISA method. The format is functional, cell-based. Conditions: dose 20.0 µg.
Data set [4] in a line: Induction of dengue virus antigen-induced immunogenicity in BALB/c mouse assessed as fold change in IgG production treated at 10 ug and booster dosed on 14th day measured after 28 days by ELISA method. The data set is classed as functional. Conditions: dose 10 µg; time 28 day. A general note: An ELISA detects its analyte on a solid surface through an enzyme-linked reagent.

Data set [5] can be described thus: Induction of dengue virus antigen-induced immunogenicity in BALB/c mouse assessed as fold change in IgG production treated at 20 ug and booster dosed on 14th day measured after 28 days by ELISA method. The data set is classed as functional. Conditions: dose 20 µg; time 28 day.
Data set [6] has as its system Mus musculus. Nature of the data set: Induction of dengue virus antigen-induced immunogenicity in BALB/c mouse assessed as […] associated IgG2a production in sera treated at 10 to 30 ug and booster dosed on 14th day measured after 28 days by ELISA method. The data set is classed as functional, organism-based. Conditions: dose 10-30 µg, time 28.0 day.
For data set [7], the system named is Splenocyte. Nature of the data set: Induction of dengue virus antigen-induced immunogenicity in BALB/c mouse assessed as increase in CD8+ production in splenocyte treated at 20 ug and booster dosed on 14th day measured after 28 days by ELISA method. The format is functional, organism-based. Conditions: dose 20.0 µg, time 28.0 day.
In data set [8] the test system is Splenocyte. Nature of the data set: Induction of dengue virus antigen-induced immunogenicity in BALB/c mouse assessed as increase in CD4+ production in Splenocyte treated at 20 ug and booster dosed on 14th day measured after 28 days by ELISA method. The data set is classed as functional, organism-based. Conditions: dose 20.0 µg, time 28.0 day.
Data set [9] deals with Splenocyte. Nature of the data set: Induction of dengue virus antigen-induced immunogenicity in BALB/c mouse assessed as increase in CD4+ production in Splenocyte treated at 1 to 30 ug and booster dosed on 14th day measured after 28 days by ELISA method. The data set is classed as functional, organism-based. Conditions: dose 1-30 µg, time 28.0 day.
Data set [10] has as its system Splenocyte. Nature of the data set: Induction of Con A-stimulated mouse splenocyte proliferation assessed as increase in T cell population incubated for 48 hrs by MTT assay. The format is functional, cell-based. Conditions: dose 10-20 µg, DDE = dose-dependent effect.
The subject of data set [11] is Splenocyte. The data set can be described thus: Induction of LPS-stimulated mouse splenocyte proliferation assessed as increase in B cell population incubated for 48 hrs by MTT assay. The format is functional, cell-based. Conditions: dose 10-20 µg, DDE = dose-dependent effect. In general terms: Tetrazolium dyes change colour on reduction, which living cells bring about.

For data set [12], the system named is Splenocyte. The data set can be described thus: Induction of dengue virus antigen-induced immunogenicity in BALB/c mouse assessed as increase in CD8+ production in Splenocyte treated at 1 to 30 ug and booster dosed on 14 th day measured after 28 days by ELISA method. The data set is classed as functional, organism-based. Conditions: dose 1-30 µg, time 28.0 day.

In data set [13] the test system is Mus musculus. The data set can be described thus: Induction of dengue virus antigen-induced immunogenicity in BALB/c mouse assessed as decrease in IFNgamma level booster dosed on 14th day and measured on day 28 after 48 hrs restimulation with antigen by ELISA method. The format is functional, organism-based. Conditions: dose 10-30 µM, time 28.0 day, DDE = dose-dependent effect.

Data set [14] deals with Mus musculus. Nature of the data set: Induction of dengue virus antigen-induced immunogenicity in BALB/c mouse assessed as increase in IL-2 level booster dosed on 14th day and measured on day 28 after 48 hrs restimulation with antigen by ELISA method. The data set is classed as functional, organism-based. Conditions: dose 10-30 µg, time 28.0 day, DDE = dose-dependent effect.

Data set [15] has as its system Mus musculus. Nature of the data set: Induction of dengue virus antigen-induced immunogenicity in BALB/c mouse assessed as increase in IL-4 level booster dosed on 14th day and measured on day 28 after 48 hrs restimulation with antigen by ELISA method. The format is functional, organism-based. Conditions: dose 10-30 µg, time 28.0 day, DDE = dose-dependent effect.
For data set [16], the system named is Mus musculus. Nature of the data set: Induction of dengue virus antigen-induced immunogenicity in BALB/c mouse assessed as increase in IL-1beta level treated at 10 to 20 ug and booster dosed on 14th day and measured on day 28 after 48 hrs restimulation with antigen by ELISA method. Conditions: dose 10-20 µg, time 28.0 day. The data set is classed as functional, organism-based.

Chain of Nucleotide-binding oligomerization domain-containing protein 2 (Homo sapiens) (Q9HC29 whole entry, the tested form may be a part): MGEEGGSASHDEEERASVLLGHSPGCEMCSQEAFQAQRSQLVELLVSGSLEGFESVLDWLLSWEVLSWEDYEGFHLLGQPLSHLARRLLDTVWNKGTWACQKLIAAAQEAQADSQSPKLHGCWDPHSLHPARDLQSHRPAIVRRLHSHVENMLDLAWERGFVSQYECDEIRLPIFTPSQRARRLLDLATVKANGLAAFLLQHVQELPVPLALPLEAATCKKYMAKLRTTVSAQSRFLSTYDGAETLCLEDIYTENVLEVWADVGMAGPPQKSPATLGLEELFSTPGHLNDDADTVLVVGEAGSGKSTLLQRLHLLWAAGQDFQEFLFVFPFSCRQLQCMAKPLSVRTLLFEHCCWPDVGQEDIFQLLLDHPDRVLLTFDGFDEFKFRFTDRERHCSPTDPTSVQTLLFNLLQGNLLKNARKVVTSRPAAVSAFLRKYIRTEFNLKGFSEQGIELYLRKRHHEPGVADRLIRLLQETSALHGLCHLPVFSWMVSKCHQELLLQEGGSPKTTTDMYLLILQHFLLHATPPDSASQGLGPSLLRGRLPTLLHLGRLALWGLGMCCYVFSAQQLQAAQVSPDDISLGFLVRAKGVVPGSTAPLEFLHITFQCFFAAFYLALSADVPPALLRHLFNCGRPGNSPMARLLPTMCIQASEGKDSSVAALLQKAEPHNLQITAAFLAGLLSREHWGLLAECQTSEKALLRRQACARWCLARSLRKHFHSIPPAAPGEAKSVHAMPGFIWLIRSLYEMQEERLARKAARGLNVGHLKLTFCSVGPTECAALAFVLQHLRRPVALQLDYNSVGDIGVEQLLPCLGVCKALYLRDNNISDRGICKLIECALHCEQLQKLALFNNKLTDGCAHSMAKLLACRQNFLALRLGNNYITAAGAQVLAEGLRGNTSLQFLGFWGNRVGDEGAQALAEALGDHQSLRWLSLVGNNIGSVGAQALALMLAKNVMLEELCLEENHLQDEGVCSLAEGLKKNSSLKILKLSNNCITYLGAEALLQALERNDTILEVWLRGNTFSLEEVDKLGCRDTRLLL

On to `C[C@H](NC(=O)[C@@H](C)O[C@H]1[C@H](O)[C@@H](CO)O[C@H](OCc2ccccc2)[C@@H]1N=[N+]=[N-])C(=O)N[C@H](CCC(=O)OCc1ccccc1)C(N)=O`, for which the Activity result was “Non-Toxic” with Peritoneal macrophage [1]; “Dde” in the data set on Splenocyte [10]; “Dde” in the data set with Splenocyte [11]; “Dde” in the data set with Mus musculus [13]; “Dde” with Mus musculus [14]; “Dde” in the data set on Mus musculus [15]. Moreover, the result (in [2]; in the data set on Peritoneal macrophage [3]; in the data set on Mus musculus [6]; in the data set on Splenocyte [7]; in the data set with Splenocyte [8]; with Splenocyte [9]) was Active. The outcome with Splenocyte [12] and with Mus musculus [16] was Active. For the same compound, the figures for the “fold change (FC)” value in data set [4] and in data set [5] were 8 and 10, respectively.

For the compound `CCCCCCCCCCCCCCOC(=O)CC[C@@H](NC(=O)[C@H](C)NC(=O)[C@@H](C)O[C@H]1[C@H](O)[C@@H](CO)O[C@H](OCc2ccccc2)[C@@H]1N=[N+]=[N-])C(N)=O`, in the data set on Peritoneal macrophage [1], the Activity result was “Non-Toxic”. The outcome (in data set [2]; in the data set on Peritoneal macrophage [3]) was Active.

Consider `C[C@H](NC(=O)[C@@H](C)O[C@@H]1[C@@H](N=[N+]=[N-])[C@@H](OCc2ccccc2)O[C@@H]2CO[C@@H](c3ccccc3)O[C@@H]12)C(=O)N[C@H](CCC(=O)OCc1ccccc1)C(N)=O`, for which the Activity result in the data set with Peritoneal macrophage [1] was “Non-Toxic”. In addition, the result (in data set [2]; in the data set with Peritoneal macrophage [3]) was Active.

On to `CCCCCCCCOC(=O)CC[C@@H](NC(=O)[C@H](C)NC(=O)[C@@H](C)O[C@H]1[C@H](O)[C@@H](CO)O[C@H](OCc2ccccc2)[C@@H]1N=[N+]=[N-])C(N)=O`, for which the Activity result with Peritoneal macrophage [1] was “Non-Toxic”. In addition, the result (in data set [2]; in the data set with Peritoneal macrophage [3]) was Active.

Turning to `C[C@H](NC(=O)[C@@H](C)O[C@H]1[C@H](O)[C@@H](CO)O[C@H](OCc2ccccc2)[C@@H]1N=[N+]=[N-])C(=O)N[C@H](CCC(=O)O)C(N)=O`, in the data set with Peritoneal macrophage [1], the Activity result is listed as “Non-Toxic”. Also, the result (in [2]; in the data set with Peritoneal macrophage [3]) was Active.

As for `CC(=O)N[C@H]1C(O)O[C@H](CO)[C@@H](O)[C@@H]1O[C@H](C)C(=O)N[C@@H](C)C(=O)N[C@H](CCC(=O)O)C(N)=O` (stereo partly drawn) [MURAMYL DIPEPTIDE], the Activity entry in the data set on Peritoneal macrophage [1] is given as “Non-Toxic”. In addition, the result (in [2]; in the data set on Peritoneal macrophage [3]) was Active. Also, the “fold change (FC)” value in data set [4] and in data set [5] was 5 in each case.

These data come from ChEMBL document CHEMBL5120872, “Synthesis and biological evaluation of novel 2-azido muramyl dipeptide as NOD2 agonistic adjuvants” (Bioorg Med Chem, 2022).
